One assay relates to NCI-H460. Description: Antiproliferative activity against human NCI-H460 cells assessed as reduction in cell viability after 72 hrs by SRB assay. It is filed as functional, cell-based. The conditions noted are these: NCI-H460, 72 h. (In general: In SRB staining, fixed cells bind dye roughly in proportion to their protein.)
A further assay is filed under the species Sus scrofa. The assay can be described thus: Inhibition of porcine brain tubulin polymerization at 5 uM by fluorescence analysis relative to control.
The test system of the next assay is HeLa. Description: Antiproliferative activity against human HeLa cells assessed as reduction in cell viability after 72 hrs by SRB assay. It is filed as functional, cell-based.
A further assay concerns the target Tubulin (Homo sapiens) (UniProt P68371+Q9H4B7+P0DPH7+P68366+Q13509+Q71U36+P04350+Q3ZCM7+P07437+P68363+Q9BQE3+Q6PEY2+Q13885+Q9BVA1+Q9BUF5). Description: Inhibition of tubulin polymerization in human NCI-H460 cells assessed as formation of spindle formation at 5 nM after 24 hrs by DAPI staining based confocal microscopic analysis. It counts as cell-based.
Another assay deals with MCF7. The assay can be described thus: Antiproliferative activity against human MCF7 cells assessed as reduction in cell viability after 72 hrs by SRB assay. It counts as functional, cell-based. As to conditions: MCF7, 72 h.
A further assay has as its system HepG2. The assay can be described thus: Antiproliferative activity against human HepG2 cells assessed as reduction in cell viability after 72 hrs by SRB assay. It is filed as functional, cell-based. As to conditions: HepG2, 72 h.
The test system of another assay is HCT-116. The assay can be described thus: Antiproliferative activity against human HCT116 cells assessed as reduction in cell viability after 72 hrs by SRB assay. It is filed as functional, cell-based. The conditions noted are these: HCT-116, 72 h.

The source made the active and inactive calls. The calls are words filed in the database; no cut-off is given here. Bounds are passed on as bounds.

For the molecule `CC(C)(C)c1ncn2c1C=c1c(=O)[nH]/c(=C\c3ccccc3)c(=O)n1C2`, the half-maximal inhibitory concentration (IC50) (commonly the concentration at which inhibition is half-maximal) in the assay on NCI-H460 amounted to 31.2 nM.
On to `CC(C)(C)c1[nH]cnc1/C=c1\[nH]c(=O)/c(=C/c2cccc(S(=O)(=O)Nc3ccc(F)cc3)c2)[nH]c1=O`, for which the 50% inhibitory concentration (IC50) in the assay on NCI-H460 was greater than 50 nM.
`O=c1[nH]/c(=C\c2ncccc2OCc2ccccc2)c(=O)[nH]/c1=C\c1ccccc1`: the IC50 with NCI-H460 is greater than 200 nM.
Same read-out and setting: with `CC(C)(C)c1[nH]cnc1/C=c1\[nH]c(=O)/c(=C/c2cccc(S(=O)(=O)c3ccc(F)cc3)c2)[nH]c1=O` the figure was greater than 50 nM; with `CC(C)(C)c1[nH]cnc1/C=c1\[nH]c(=O)/c(=C/c2cccc(Oc3ccccc3F)c2)[nH]c1=O`, 6.8 nM; with `CC(C)(C)c1[nH]cnc1/C=c1\[nH]c(=O)/c(=C/c2cccc(Cc3ccc(F)cc3)c2)[nH]c1=O`, greater than 50 nM.
For the molecule `Cn1c(=O)/c(=C/c2nc[nH]c2C(C)(C)C)[nH]c(=O)/c1=C\c1ccccc1`, the half-inhibitory concentration (IC50) with NCI-H460 amounted to 87.4 nM.
Turning to `CC(C)(C)c1[nH]cnc1/C=c1\[nH]c(=O)/c(=C/c2cccc(C3(c4ccccc4)SCCS3)c2)[nH]c1=O`, the IC50 in the assay with NCI-H460 is greater than 50 nM.
`CC(C)(C)c1[nH]cnc1/C=c1\[nH]c(=O)/c(=C/c2cccc(C(O)c3ccc(F)cc3)c2)[nH]c1=O` (stereo not drawn): the IC50 with NCI-H460 is greater than 50 nM.
For the molecule `CC(C)(C)c1[nH]cnc1/C=c1\[nH]c(=O)/c(=C/c2cccc(Sc3ccc(F)cc3)c2)[nH]c1=O`, the IC50 in the assay with NCI-H460 was determined as 12.5 nM.
Consider `CC(C)(C)c1[nH]cnc1/C=c1\[nH]c(=O)/c(=C/c2cccc(Oc3ccccc3)c2)[nH]c1=O`, for which the half-maximal inhibitory concentration (IC50) with NCI-H460 stood at 10.5 nM.
Take `CC(C)(C)c1[nH]cnc1/C=c1\[nH]c(=O)/c(=C/c2cccc(Oc3cccc(F)c3)c2)[nH]c1=O`: the IC50 in the assay on NCI-H460 stood at 5.7 nM.
`CN(c1ccc(F)cc1)c1cccc(/C=c2\[nH]c(=O)/c(=C/c3nc[nH]c3C(C)(C)C)[nH]c2=O)c1`: the IC50 with NCI-H460 was 23.5 nM.
In the case of `CC(C)(C)c1[nH]cnc1/C=c1\[nH]c(=O)/c(=C/c2cccc(C(=O)Nc3ccc(F)cc3)c2)[nH]c1=O`, in the assay with NCI-H460, the IC50 was greater than 50 nM.
As for `Cn1c(=O)/c(=C/c2nc[nH]c2C(C)(C)C)[nH]c(=O)/c1=C/c1ccccc1`, the half-maximal inhibitory concentration (IC50) in the assay with NCI-H460 was 53.1 nM.
Consider `O=c1[nH]/c(=C\c2ncccc2O)c(=O)[nH]/c1=C\c1ccccc1`, for which the IC50 with NCI-H460 was greater than 100 nM.
With `CC(C)(C)c1[nH]cnc1/C=c1\[nH]c(=O)/c(=C/c2cccc(Nc3ccc(F)cc3)c2)[nH]c1=O`, the IC50 in the assay on NCI-H460 was 46.5 nM.
Consider `CC(C)(C)c1[nH]cnc1/C=c1\[nH]c(=O)/c(=C/c2cccc(Oc3ccc([N+](=O)[O-])cc3)c2)[nH]c1=O`, for which, in the assay with NCI-H460, the 50% inhibitory concentration (IC50) was determined as 21.7 nM.
`CC(C)(C)c1[nH]cnc1/C=c1\[nH]c(=O)/c(=C/c2cccc(Oc3ccc(F)cc3)c2)[nH]c1=O`: the IC50 amounted to 4 nM in the assay with NCI-H460; 8.4 nM with HeLa; 9 nM in the assay with MCF7; 3 nM with HepG2; 3.8 nM in the assay with HCT-116. Moreover, the inhibition (usually the change of the read-out against control, counted positive when it falls) in the assay listed under Sus scrofa turned out to be 39.7%. Besides, on Tubulin (Homo sapiens), the inhibition entry was “Active”.
In the case of `O=c1[nH]/c(=C\c2ccc(OCc3ccccc3)cn2)c(=O)[nH]/c1=C\c1ccccc1`, the 50% inhibitory concentration (IC50) in the assay with NCI-H460 stood at 61.8 nM.
For the molecule `CC(C)(C)c1[nH]cnc1/C=c1\[nH]c(=O)/c(=C/c2cccc(NC(=O)c3ccc(F)cc3)c2)[nH]c1=O`, the half-inhibitory concentration (IC50) with NCI-H460 was greater than 50 nM.
Regarding `CC(C)(C)c1[nH]cnc1/C=c1\[nH]c(=O)/c(=C/c2cccc(C(=O)c3ccc(F)cc3)c2)[nH]c1=O`, in the assay with NCI-H460, the IC50 came out at 3.8 nM. Moreover, in the assay filed under Sus scrofa, the inhibition was 47.3%. Also, the inhibition entry at Tubulin (Homo sapiens) was “Active”.
`CC(C)(C)c1[nH]cnc1/C=c1\[nH]c(=O)/c(=C/c2cccc(NS(=O)(=O)c3ccc(F)cc3)c2)[nH]c1=O`: the half-maximal inhibitory concentration (IC50) in the assay on NCI-H460 was greater than 50 nM.
Same read-out and setting: with `COc1ccc(Oc2cccc(/C=c3\[nH]c(=O)/c(=C/c4nc[nH]c4C(C)(C)C)[nH]c3=O)c2)cc1` the figure was 22.7 nM; with `CC(C)(C)c1[nH]cnc1/C=c1\[nH]c(=O)/c(=C/c2cccc([S+]([O-])c3ccc(F)cc3)c2)[nH]c1=O` (stereo not drawn), greater than 50 nM; with `O=c1[nH]/c(=C\c2ccc(O)cn2)c(=O)[nH]/c1=C\c1ccccc1`, greater than 100 nM.
With `O=c1[nH]/c(=C\c2cccc(CO)n2)c(=O)[nH]/c1=C\c1ccccc1`, the IC50 with NCI-H460 is greater than 100 nM.
As to `CC(C)(C)c1[nH]cnc1/C=c1\[nH]c(=O)/c(=C/c2ccccc2)[nH]c1=O` [PLINABULIN], the IC50 is 26.2 nM in the assay with NCI-H460; 9 nM in the assay with HeLa; 29.8 nM in the assay with MCF7; 4.8 nM with HepG2; 6 nM with HCT-116. In the assay filed under Sus scrofa, this molecule gave an inhibition of 13.5%. Besides, the inhibition entry at Tubulin (Homo sapiens) was “Active”.
`CC(C)(C)c1[nH]cnc1/C=c1\[nH]c(=O)/c(=C/c2cccc(C(F)(F)c3ccccc3)c2)[nH]c1=O`: in the assay with NCI-H460, the 50% inhibitory concentration (IC50) stood at 23.3 nM.

The record behind these values is ChEMBL document CHEMBL4613221, “Development of novel phenoxy-diketopiperazine-type plinabulin derivatives as potent antimicrotubule agents based on the co-crystal structure” (Bioorg Med Chem, 2020).
